Values quoted from earlier work as cited in patent US20080124273A1, “Novel cationic metal complex radiopharmaceuticals” (priority 2004, published 2008).

What was measured:
[1] = background statement
[2] = background statement; remark: listed apart in the source

Row | Compound | lipophilicity [1] | T/B ratios [2] | heart uptake [2] | first-pass extraction [2] | uptake in liver and lungs [2]
1 | CCOCCC[P]1(CCCOCC)CCN(CCOCC)CC[P](CCCOCC)(CCCOCC)[99Tc+]12(#[N])[S]C(N(CCOCC)CCOCC)=[S]2 [^99mTcN-DBODC6, [^99mTc(N)(N(CH2CH2OEt)2(PNP6)]^+] | high | poor | very low |  | 
2 | [C-]#[N+]CC(C)(C)OC.[C-]#[N+]CC(C)(C)OC.[C-]#[N+]CC(C)(C)OC.[C-]#[N+]CC(C)(C)OC.[C-]#[N+]CC(C)(C)OC.[C-]#[N+]CC(C)(C)OC.[Tc] [^99mTc-Sestamibi] |  |  |  | low | high
